Experimental data: ChEMBL document CHEMBL1143413, “Synergistic effect of posaconazole and caspofungin against clinical zygomycetes” (Antimicrob Agents Chemother, 2007)
Values after ≈ are worked out from the molar mass of the structure shown.

Key:
[1] = tested on: Mucor; test: Antifungal activity against Mucor strain 39 zygomycota by conventional morphological method; type: functional
[2] = tested on: Rhizopus; test: Antifungal activity against Rhizopus strain 3 zygomycota by conventional morphological method; type: functional
[3] = tested on: Cunninghamella; test: Antifungal activity against Cunninghamella sp. strain 12 zygomycota by conventional morphological method; type: functional
[4] = tested on: Rhizomucor; test: Antifungal activity against Rhizomucor sp. strain 25 zygomycota by conventional morphological method; type: functional
[5] = tested on: Absidia; test: Antifungal activity against Absidia strain 17 zygomycota by conventional morphological method; type: functional
[6] = tested on: Mucor; test: Antifungal activity against Mucor strain 28 zygomycota by conventional morphological method; type: functional
[7] = tested on: Absidia; test: Antifungal activity against Absidia strain 11 zygomycota by conventional morphological method; type: functional
[8] = tested on: Rhizopus; test: Antifungal activity against Rhizopus strain 8 zygomycota by conventional morphological method; type: functional
[9] = tested on: Absidia; test: Antifungal activity against Absidia strain 18 zygomycota by conventional morphological method; type: functional
[10] = tested on: Rhizopus; test: Antifungal activity against Rhizopus strain 0 zygomycota by conventional morphological method; type: functional
[11] = tested on: Mucor; test: Antifungal activity against Mucor strain 43 zygomycota by conventional morphological method; type: functional
[12] = tested on: Syncephalastrum; test: Antifungal activity against Snycephalastrum sp. strain 23 zygomycota by conventional morphological method; type: functional
[13] = Toxicity in invasive zygomycosis diseased patient assessed as mortality; type: organism-based; settings: human, in vivo; read-out: Activity

| Structure (SMILES) | MIC [1] | MIC [2] | MIC [3] | MIC [4] | MIC [5] | MIC [6] | MIC [7] | MIC [8] | MIC [9] | MIC [10] | MIC [11] | MIC [12] | mortality [13] |
| --- | --- | --- | --- | --- | --- | --- | --- | --- | --- | --- | --- | --- | --- |
| CC[C@H](C)C[C@H](C)CCCCCCCCC(=O)N[C@H]1C[C@@H](O)[C@@H](NCCN)NC(=O)[C@@H]2[C@@H](O)CCN2C(=O)[C@H]([C@H](O)CCN)NC(=O)[C@H]([C@H](O)[C@@H](O)c2ccc(O)cc2)NC(=O)[C@@H]2C[C@@H](O)CN2C(=O)[C@H]([C@@H](C)O)NC1=O [CASPOFUNGIN] | > 256 µg/mL | > 256 µg/mL | > 256 µg/mL | 128 µg/mL (≈ 117 µM) | > 256 µg/mL | 256 µg/mL (≈ 234 µM) | > 256 µg/mL | > 256 µg/mL | > 256 µg/mL | > 256 µg/mL | 256 µg/mL (≈ 234 µM) | > 256 µg/mL |  |
| CC[C@@H]([C@H](C)O)n1ncn(-c2ccc(N3CCN(c4ccc(OC[C@@H]5CO[C@@](Cn6cncn6)(c6ccc(F)cc6F)C5)cc4)CC3)cc2)c1=O [POSACONAZOLE] | 1 µg/mL (≈ 1.43 µM) | 1 µg/mL (≈ 1.43 µM) | 1 µg/mL (≈ 1.43 µM) | 2 µg/mL (≈ 2.85 µM) | 1 µg/mL (≈ 1.43 µM) | 0.5 µg/mL (≈ 0.713 µM) | 1 µg/mL (≈ 1.43 µM) | 1 µg/mL (≈ 1.43 µM) | 0.5 µg/mL (≈ 0.713 µM) | 1 µg/mL (≈ 1.43 µM) | 0.5 µg/mL (≈ 0.713 µM) | 1 µg/mL (≈ 1.43 µM) | 30% |
